The record followed here is patent US12337022B2, “Use of a vegetable extract from salvia haenkei as an active agent in the treatment of heart diseases” (Altergon S.A., priority 2021, dated 2025).

One series deals with Sprague-Dawley rats. Description: Echocardiography in rat model of DOXO-induced cardiotoxicity. The format is in vivo. As to conditions: DOXO-treated animals not receiving SH. How it is done:
For in vivo experiments, considering that a water intake for adult rat is about 30-40 ml/day, 1.25 gr of SH extract was diluted in 300 ml of water, achieving a daily dose of […] (extract/body weight).
Adult female Sprague-Dawley rats (250-300 g body weight) were injected with six intraperitoneal doses of DOXO (Sigma) delivered at regular intervals from Day 1 to Day 11 (cumulative dose=15 mg/kg). During the treatment, rats were given ad libitum access to water containing SH. Rats received a daily dose of about 0.5 mg/Kg of SH.
Echocardiographic assessment, animals were anaesthetized at the indicated time points with 2.0-2.5% isoflurane. Transthoracic echocardiography was performed using the Vevo 2100 high-resolution imaging system (VisualSonic) equipped with a 13-24-MHz linear transducer. Analyses were performed on Days 0 (baseline), 12, 19. Two-dimensional short-axis M-mode echocardiography was performed. All M-mode tracing measurements were averaged from a minimum of three cardiac cycles. Investigators were blinded to the animals' identity.

Structures are written as SMILES.

Description for beating human iPS-CM: Traces were recorded every 24 hours for 7 consecutive days from the beginning of the DOXO treatment (day 0-3 h).

For the molecule `COc1cccc2c1C(=O)c1c(O)c3c(c(O)c1C2=O)C[C@@](O)(C(=O)CO)C[C@@H]3O[C@H]1C[C@H](N)[C@H](O)[C@H](C)O1` [DOXO, Doxorubicin], in the series with Sprague-Dawley rats, the “left end systolic volume (LVESV)” value is listed as “increased over time” and the “left ventricular ejection fraction (LVEF)” value is “significant decrease”. For the same molecule, the QT interval result with beating human iPS-CM was “induces prolongation on QT interval”.
